Test results taken from US5910575A, “Immunoassay and monoclonal antibodies for urinary cortisol” (Immunotech, priority 1995, dated 1999).

What was measured:
[1] = target: anti-cortisol monoclonal antibody Immu 473 (IMMU-473, CNCM I-1532), obtained against the immunogen cortisol-3-CMO (syn)-BSA; test: Displacement of the cortisol-3-CMO (anti)-[125I] iodohistamine tracer from the monoclonal antibody (liquid phase radioimmunoassay); assay type: binding, mouse
Description: (§1) Selection is carried out by a liquid phase radioimmunoassay technique starting with the culture supernatant. The supernatants possibly containing anti-cortisol antibodies are incubated with a solution of radioactive cortisol (tritiated cortisol or cortisol derivative labelled with radioactive iodine: cortisol-3-CMO (anti)-[^125 I] iodohistamine). If anti-cortisol antibodies are present, they will bind the radioactive steroid. After incubation with charcoal-dextran and centrifugation to remove the free radioactivity and all the small molecules not fixed to the antibodies, a sample of the supernatant (bound fraction) is removed and counted.
(§2) The affinities of the monoclonal antibodies are measured by displacement of the cortisol-3-CMO (anti)-[^125 I] iodohistamine tracer with the two labelling precursors: cortisol-3-CMO (anti)-histamine and cortisol-3-CMO (syn)-histamine. The affinity is estimated (in the form of the IC50 value) according to the concentration displacing half of the tracer, since the tracer is present in a small quantity compared with the other constituents.

[2] = target: anti-cortisol monoclonal antibody Immu 482, obtained against the immunogen cortisol-3-CMO (syn)-BSA; test: as above; assay type: binding, mouse
Description: as §1, §2

[3] = tracer cortisol-3-CMO (anti)-[125I] iodohistamine, concentration displacing half of the tracer
[4] = IC50 of cortisol-3-CMO (anti)-histamine divided by IC50 of cortisol-3-CMO (syn)-histamine

| SMILES | Displacement of the tracer by Cortisol-3-CMO (anti)-histamine IC50 [1, 3] [ng/mL] | Displacement of the tracer by Cortisol-3-CMO (anti)-histamine IC50 [2, 3] [ng/mL] | Ratio IC50 anti/IC50 syn [1, 4] | Displacement of the tracer by Cortisol-3-CMO (syn)-histamine IC50 [1, 3] [ng/mL] | Ratio IC50 anti/IC50 syn [2, 4] | Displacement of the tracer by Cortisol-3-CMO (syn)-histamine IC50 [2, 3] [ng/mL] |
| --- | --- | --- | --- | --- | --- | --- |
| C[C@]12CC/C(=N\OCC(=O)NCCc3c[nH]cn3)C=C1CC[C@@H]1[C@@H]2[C@@H](O)C[C@@]2(C)[C@H]1CC[C@]2(O)C(=O)CO [Cortisol-3-CMO (anti)-histamine, cortisol-3-carboxymethyloxime (anti)-histamine] | 0.496 | 0.468 | – | – | – | – |
| C[C@]12CC/C(=N/OCC(=O)NCCc3c[nH]cn3)C=C1CC[C@@H]1[C@@H]2[C@@H](O)C[C@@]2(C)[C@H]1CC[C@]2(O)C(=O)CO [Cortisol-3-CMO (syn)-histamine, cortisol-3-carboxymethyloxime (syn)-histamine] | – | – | 2.73 | 0.182 | 2.66 | 0.176 |
